Read-outs that look alike come from different tables or passages of the source.
How the values were obtained:
[1] = system: P. berghei-ANKA-GFP-LucCON liver stage parasites in HepG2-A16-CD81EGFP cells; test: P. berghei liver stage Pb-Luc assay, Method 1 (UCSD, 1536-well); format: cell-based, Plasmodium berghei; details: Plasmodium berghei, 48 h, average of 2 wells, 1536-well plate; for activity at 1 µM: nominal 1 uM (10 mM stock), […] for 15 mM, 1.2 uM for 12 mM, 2 uM for 20 mM stock; for activity at 3 µM: nominal 3 uM (10 mM stock), 4.5 uM for 15 mM, 3.6 uM for 12 mM, 6 uM for 20 mM stock; for all read-outs here: reference of the scale not given here
in vitro = details: human
[2] = system: Plasmodium falciparum Dd2 asexual blood stage parasites; test: microbe, parasite or virus in culture; set-up: species or system Plasmodium falciparum Dd2 in human erythrocytes; single determination (one 11-point concentration-response curve); details: Plasmodium falciparum, DD2, Erythrocyte, 72 h; read-out: AC50
[3] = repeat 1, read-out: Pb-Luc signal, 1 uM, repeat 1
[4] = repeat 2, read-out: Pb-Luc signal, 1 uM, repeat 2
[5] = repeat 3, read-out: Pb-Luc signal, 1 uM, repeat 3
[6] = repeat 1, read-out: Pb-Luc signal, 3 uM, repeat 1
[7] = repeat 2, read-out: Pb-Luc signal, 3 uM, repeat 2
[8] = repeat 3, read-out: Pb-Luc signal, 3 uM, repeat 3
[9] = nominal 1 uM (10 mM stock), […] for 15 mM, 1.2 uM for 12 mM, 2 uM for 20 mM stock, average of 2 wells, repeat 2
[10] = nominal 3 uM (10 mM stock), 4.5 uM for 15 mM, 3.6 uM for 12 mM, 6 uM for 20 mM stock, average of 2 wells, repeat 2
[11] = HepG2-A16-CD81EGFP cells, uninfected

Structure (SMILES)	activity at 1 µM [1, 3] [%]	activity at 1 µM [1, 4] [%]	activity at 1 µM [1, 5] [%]	activity at 3 µM [1, 6] [%]	activity at 3 µM [1, 7] [%]	activity at 3 µM [1, 8] [%]	HepG2 viability signal, 1 uM, repeat 2 (HepG2-A16-CD81EGFP cells; [9]) [%]	HepG2 viability signal, 3 uM, repeat 2 (HepG2-A16-CD81EGFP cells; [10]) [%]	viability at 48 h, 1 µM (in vitro; [11]) [%]	viability at 48 h, 3 µM (in vitro; [11]) [%]	AC50 [2] [nM]	HepG2 viability signal, 1 uM, repeat 2 (HepG2-A16-CD81EGFP cells; human, 48 h, 1 µM) [%]	HepG2 viability signal, 3 uM, repeat 2 (HepG2-A16-CD81EGFP cells; human, 48 h, 3 µM) [%]	viability at 48 h, 1 µM (in vitro) [%]	viability at 48 h, 3 µM (in vitro) [%]
Cc1ccc(C)c(Oc2c(C(F)(F)F)oc3c(CN4CCN(C)CC4)c(O)ccc3c2=O)c1 [NCGC00141020-01]	97.7	131	113	86	92.3	113	106.86	105.57	110	115	750				
Cc1cnc(CC2CCN([S+](=O)([O-])c3ccccc3)CC2)n1Cc1ccccc1 [NCGC00469740-01]	97.2	133	138	81.1	76.7	90.7	97.06	98.63	94.7	96.4	5310				
CCC(CC)c1cc([C@H]2CN3CC[C@H]2C[C@@H]3CN[S+](=O)([O-])c2ccccc2C#N)nc(-c2ccncc2)n1 [NCGC00421343-01]	72	78.5	103	49	52	66.9					1500	105.19	104.55	110	110
CCOC(=O)c1c(S(=O)(=O)N2CCCC(C(=O)N3CCN(c4cccc(C)c4C)CC3)C2)c(C)n(C)c1C (centres unmarked) [NCGC00138143-01]	90.2	90.3	120	83.2	98.3	108	101.67	102.57	96.4	99.6	1060				
CCc1ccc(Oc2c(C(F)(F)F)oc3c(CN4CCN(CC)CC4)c(O)ccc3c2=O)cc1 [NCGC00101506-01]	82.1	87.1	67	64.2	90	40.1	92.46	94.20	92.4	95.7	376				
CCN1CCN(Cc2c(O)ccc3c(=O)c(Oc4ccccc4Cl)c(C(F)(F)F)oc23)CC1 [NCGC00101484-01]	88.6	66	90.1	93.5	101	77.7	99.03	97.39	99.8	94.1	596				
CCOc1ccc(Cl)cc1CN(C)CC1(O)CCCNC1 (centres unmarked) [NCGC00439019-01]	133	111	171	102	113	128	100.51	101.33	99.5	96.9	2990				
Fc1ccc(N2CCCN(C[C@H]3[C@@H]4CNC[C@@H]43)CC2)cc1 [NCGC00435915-01]	97.7	120	120	53.5	38.2	21.5	103.90	120.28	102	124	8410				
CCOC(=O)c1ccc2c(c1)[C@@H]1C=CC[C@@H]1[C@H](c1cccc(OC)c1OC)N2 [NCGC00100279-01]	74.5	94.6	122	60.1	74.5	64.8	100.32	102.96	97.9	105	2660				
COc1cccc(C2C(C(=O)Nc3ccc(C)cc3C)=C(C)Nc3c(C(=O)Nc4ccccc4)cnn32)c1 (centres unmarked) [NCGC00126286-01]	97.2	125	153	94.7	93.4	100	98.62	98.36	94.8	99.4	2110				
COc1cc(C(=O)NC2CCCc3c2[nH]c2c(Cl)cccc32)cc(OC)c1OC (centres unmarked) [NCGC00424034-01]	122	161	165	157	165	156	98.86	98.35	101	98.2	2110				
CC1=C(C(=O)Nc2ccc(C)cc2C)C(c2ccc([N+](=O)[O-])cc2)n2ncc(C(=O)Nc3ccc(F)cc3)c2N1 (centres unmarked) [NCGC00126356-01]	110	107	122	80.3	94	83.4	98.93	92.77	98.5	94.6	2990				
CCOc1ccccc1CN1CCCN(Cc2ccncc2)C(c2ccccc2)CC(=O)NCC1 (centres unmarked) [NCGC00467181-01]	105	89.1	111	102	80.2	86.4	96.74	96.24	101	96.8	6680				

From publication PMC7822874, “Chemoprotective antimalarials identified through quantitative high-throughput screening of Plasmodium blood and liver stage parasites” (Scientific Reports, 2021)
